The text below walks through data of patent publication US20250282774A1, “FUSED RING COMPOUND” (SHANGHAI SHIJIANG BIOTECHNOLOGY CO., LTD., priority 2022, published 2025).

The subject of experiment [1] is mPTP-active Daoy cell. Briefly: Cell viability (Promega CellTiter-Glo), mPTP-active Daoy cell. Conditions: Homo sapiens, Daoy cell transfected with empty virus vector. The class given is cell-based. On the technique in general: In ATP-based viability assays light output follows the ATP content of the culture.
The subject of experiment [2] is Con-NCI-H82 cell. In words: Cell viability (Promega CellTiter-Glo), Con-NCI-H82 cell. The class given is cell-based. The settings on record: Homo sapiens, NCI-H82 cell transfected with empty virus vector. An excerpt: (§1) The expression of NNMT protein in NCI-H82 cell was overexpressed by inserting the NNMT gene into NCI-H82 cell using a viral vector, and the NNMT protein-overexpressing NCI-H82 cell (ov-NNMT NCI-H82 cell) was obtained. The expression of DNMT1 in NCI-H82 cell was knocked down by transfecting shRNA (the nucleotide sequence of shRNA was […] (SEQ ID No: 3)) using a viral vector, and the NCI-H82 cell with low expression of DNMT1 protein (sh-DNMT1 NCI-H82 cell) was obtained. The control NCI-H82 cell (Con-NCI-H82 cell) was obtained by transfecting NCI-H82 cell with empty virus vector without carrying NNMT gene and shRNA. The expressing content of NNMT protein and DNMT1 protein in the Con-NCI-H82 cell, the expressing content of NNMT protein in the ov-NNMT NCI-H82 cell, and the expressing content of DNMT1 protein in the sh-DNMT1 NCI-H82 cell were detected using Western Blot assay (as shown in FIG. 3 and FIG. 4), it could be seen from FIG. 3 and FIG. 4 that the NNMT protein was overexpressed in the ov-NNMT NCI-H82 cell and the expression of DNMT1 protein was knocked down (i.e, low expression) in the sh-DNMT1 NCI-H82 cell compared with the expression level of NNMT protein and DNMT1 protein in the Con-NCI-H82 cell.

Experiment [3] relates to sh-DNMT1 NCI-H82 cell. Briefly: Cell viability (Promega CellTiter-Glo), sh-DNMT1 NCI-H82 cell. The class given is cell-based. The settings on record: Homo sapiens, NCI-H82 cell with DNMT1 knocked down.
Text: as §1

Experiment [4] relates to mPTP-inactive Daoy cell. In words: Cell viability (Promega CellTiter-Glo), mPTP-inactive Daoy cell. The class given is cell-based. Conditions: Homo sapiens, Daoy cell transfected with PPIF shRNA vector.
Experiment [5] concerns ov-NNMT NCI-H82 cell. Briefly: Cell viability (Promega CellTiter-Glo), ov-NNMT NCI-H82 cell. The class given is cell-based. Conditions: Homo sapiens, NCI-H82 cell overexpressing NNMT protein.
Text: as §1

The subject of experiment [6] is Daoy cell transfected with virus vector carrying shRNA that could specifically induce the degradation of PPIF mRNA. Briefly: Mitochondria membrane potential difference by TMRM in Daoy cell transfected with PPIF shRNA. The class given is cell-based, human. Conditions: H2O2 +, CsA −.
Experiment [7] relates to Daoy cell. Briefly: Mitochondria membrane potential difference by TMRM in Daoy cell (mPTP activity). The class given is cell-based, human. The settings on record: H2O2 +, CsA −. An excerpt:
For cells with active mitochondria permeability transition pore, adding peroxide (such as H2O2) could increase the activity of mitochondria permeability transition pore, resulting in a decrease in mitochondria membrane potential.

In experiment [8] the test system is Daoy cell transfected with empty virus vector without carrying shRNA. In words: Mitochondria membrane potential difference by TMRM in Daoy cell transfected with empty virus vector (Con shRNA). The class given is cell-based, human. The settings on record: H2O2 +, CsA −.

Usually IC50 stands for the point on the concentration scale where inhibition reaches its midpoint. A high value points to lower potency.

Consider `COc1ccc2cc3[n+](cc2c1N1CCCCC1C)CCc1cc2c(cc1-3)OCO2` (stereo not drawn) [Compound AB35528], for which the IC50 turned out to be 1490 nM in experiment [1]; 0.27 µM in experiment [2]; 1.48 µM in experiment [3]; 420 nM in experiment [4]; 0.68 µM in experiment [5].

As to `COc1ccc2cc3[n+](cc2c1N1CCCC(C)C1)CCc1cc2c(cc1-3)OCO2` (stereo not drawn) [Compound AB35530], the IC50 in experiment [1] was determined as 2430 nM; in experiment [2] it was 0.32 µM; in experiment [3], 1.76 µM; in experiment [4], 550 nM; in experiment [5], 0.72 µM.

Turning to `COc1ccc2cc3[n+](cc2c1N1CCOC(C)C1)CCc1cc2c(cc1-3)OCO2` (stereo not drawn) [Compound AB35540], the IC50 in experiment [1] amounted to 15600 nM; in experiment [2] it was 5.05 µM; in experiment [3], 19 µM; in experiment [4], 5850 nM; in experiment [5], 10.4 µM.

For `COc1ccc2cc3[n+](cc2c1N1CCC(F)CC1)CCc1cc2c(cc1-3)OCO2` [Compound AB35551], the IC50 in experiment [1] came out at 5820 nM; in experiment [2] it was 1.57 µM; in experiment [3], 5.96 µM; in experiment [4], 1970 nM; in experiment [5], 3.48 µM.

With `COc1ccc2cc3[n+](cc2c1N1CCCC1)CCc1cc2c(cc1-3)OCO2` [Compound AB35555], the IC50 in experiment [1] turned out to be 1580 nM; in experiment [2], 0.37 µM; in experiment [3], 2.19 µM; in experiment [4], 450 nM; in experiment [5], 1.02 µM.

In the case of `COc1ccc2cc3[n+](cc2c1N1CCC(F)(F)CC1)CCc1cc2c(cc1-3)OCO2` [Compound AB35556], the IC50 in experiment [1] turned out to be 7310 nM; in experiment [2], 2.57 µM; in experiment [3], 9.86 µM; in experiment [4], 3140 nM; in experiment [5] it was 5.85 µM.

Regarding `COc1ccc2cc3[n+](cc2c1N1CCC2(CCO2)CC1)CCc1cc2c(cc1-3)OCO2` [Compound AB35575], the IC50 in experiment [1] amounted to 26700 nM; in experiment [2] it was 4.07 µM; in experiment [3], 14.8 µM; in experiment [4], 5850 nM; in experiment [5] it was 8.96 µM.

In the case of `COc1ccc2cc3[n+](cc2c1N1CCCCCC1)CCc1cc2c(cc1-3)OCO2` [Compound AB36413], the IC50 stood at 1260 nM in experiment [1]; 0.29 µM in experiment [2]; 1.58 µM in experiment [3]; 320 nM in experiment [4]; 0.85 µM in experiment [5].

Consider `COc1ccc2cc3[n+](cc2c1N1CCCCC1)CCc1cc2c(cc1-3)OCO2` [Compound AB36492], for which the IC50 was determined as 1650 nM in experiment [1]; 0.21 µM in experiment [2]; 1.46 µM in experiment [3]; 460 nM in experiment [4]; 0.68 µM in experiment [5].

Regarding `OO` [Compound H2O2, H2O2], the figures for the “Relative TMRM signal intensity (%), mean value” in experiment [6] and in experiment [8] were 95% and 79%, respectively. Also, the “Relative TMRM signal intensity (%) in Daoy cell after different treatments, mean value” in experiment [7] was 82%.

In the case of `COc1ccc2cc3[n+](cc2c1N1CCC(C)CC1)CCc1cc2c(cc1-3)OCO2` [Compound SJ0001], the IC50 was determined as 1350 nM in experiment [1]; 0.14 µM in experiment [2]; 1.12 µM in experiment [3]; 520 nM in experiment [4]; 0.58 µM in experiment [5].

For `COc1ccc2cc3[n+](cc2c1N1CCC(C(F)(F)F)CC1)CCc1cc2c(cc1-3)OCO2` [Compound SJ0002], the IC50 was 5130 nM in experiment [1]; 0.32 µM in experiment [2]; 2.03 µM in experiment [3]; 1560 nM in experiment [4]; 0.88 µM in experiment [5].

With `COc1ccc2cc3[n+](cc2c1N1CCC(Cl)CC1)CCc1cc2c(cc1-3)OCO2` [Compound SJ0004], the IC50 in experiment [1] was determined as 7450 nM; in experiment [2], 0.74 µM; in experiment [3] it was 2.96 µM; in experiment [4], 2410 nM; in experiment [5], 1.94 µM.

With `COc1ccc2cc3[n+](cc2c1N1CCC(C)CC1)CCc1cc2c(cc1-3)OCCO2` [Compound SJ0009], the IC50 is 2060 nM in experiment [1]; 0.18 µM in experiment [2]; 1.33 µM in experiment [3]; 470 nM in experiment [4]; 0.55 µM in experiment [5].

`COc1ccc2cc3[n+](cc2c1N1CCC(C(F)(F)F)CC1)CCc1cc2c(cc1-3)OCCO2` [Compound SJ0010]: the IC50 in experiment [1] came out at 6330 nM; in experiment [2] it was 0.45 µM; in experiment [3], 2.54 µM; in experiment [4], 2090 nM; in experiment [5] it was 0.89 µM.

As for `COc1ccc2cc3[n+](cc2c1N1CCC(Cl)CC1)CCc1cc2c(cc1-3)OCCO2` [Compound SJ0012], the IC50 was determined as 6960 nM in experiment [1]; 0.97 µM in experiment [2]; 3.88 µM in experiment [3]; 2080 nM in experiment [4]; 2.35 µM in experiment [5].
